The results in this text go back to patent US7425549B2, “Drug for the treatment of osteonecrosis and for the management of patients at risk of developing osteonecrosis” (The Royal Alexandra Hospital for Children, priority 2001, dated 2008).

This test concerns traumatic osteonecrosis (femoral head). The test is described as follows: Model of traumatic osteonecrosis of the femoral head in rats, six weeks after operation. The test is classed as in vivo, Wistar rats. Conditions: for BMC / BMD: femoral head, DEXA; for XR Head Area (% Contra): operated femoral head, six weeks. The text has this:
A model of traumatic osteonecrosis was utilised in 24 female 14-week-old Wistar rats. The animals were followed for six weeks after an operation designed to disrupt the blood supply to the femoral head. The six week time point was chosen as a time point when femoral head collapse is known to have occurred in this model ^1. Animal ethics approval was received.
Rats were randomised in lots of 4 into three groups according to the schedule below. Controls receive only saline (S) injections via a subcutaneous route. Post-treated animals received saline only pre-operatively, but zoledronic acid (ZA) (Novartis) 0.1 mg/kg, from commercial stock, was administered by subcutaneous injection post-operatively at 1 and 4 weeks. Pre and Post-treated animals received zoledronic acid 0.1 mg/kg at all three time points.
The same operation was performed on each rat at time zero. All animals were weighed accurately before anaesthesia. Animals were kept warm during surgery and recovery. Anaesthesia was induced with a mixture of Ketamine 75 mg/kg and Xylazine 10 mg/kg. Drugs were mixed in the same syringe just prior to administration and given 0.2 mL per 100 g BW IM. Induction occurred within 5-10 minutes.
After sterile preparation and shaving of the right lower extremity, an open approach was made to the hip joint. The capsule was opened, and the right femoral head was dislocated from the acetabulum. The ligamentum teres divided, disrupting any blood supply from that source. The entire femoral neck was denuded of soft tissue by polishing with a vicryl suture. This disrupted the lateral epiphyseal artery and any other vessels supplying the head via the femoral neck.
Dual fluorescent labels were applied at weeks 4 and 5: at week 4 demeclocycline 30 mg/kg was administered intraperitoneally, and at week 5 calcein 20 mg/kg was administered intraperitoneally. One hour prior to culling 70 MBq Tc99 MDP was administered subcutaneously to allow bone scintigraphy to be performed on harvested specimens.
After culling, right and left proximal femora were harvested and fixed in 4% paraformaldehyde. Radiographs were taken in pairs on high quality film with a Faxitron Shielded Cabinet X-Ray System (Hewlett Packard, McMinnville, Oreg. X-ray images were digitised and analysed using Bioquant image analysis system (R&M Biometrics Inc., Nashville, Tenn.) connected to a digitizing tablet (GTCO CalComp, Inc., Columbia, Md.). Bone area, height and width of the femoral head were recorded and compared to the contralateral side. Scintigraphy scans were taken using 4 mm aperture pinholes. BMD and BMC were measured with a pDEXA Sabre scanner (Norland, Ft Atkinson Wis.).
Specimens were resin embedded and sectioned undecalcified. Coronal sections (6 microns) were cut through the femoral head. Sections were stained with von Kossa to assess trabecular bone volume and structure. Fluorescent microscopy was used on unstained sections to image the fluorescent labels and assess bone formation.

Setting [1] is: Post-Treated: 0.1 mg/kg s.c. at 1 and 4 weeks post-operatively.
Setting [2] is: Pre- and Post: 0.1 mg/kg s.c. at all three time points.

Regarding `O=P(O)(O)C(O)(Cn1ccnc1)P(=O)(O)O` [zoledronic acid, 1-hydroxy-2-[(1H-imidazol-1-yl)ethylidine] bisphosphonic acid], under setting [1], the BMC turned out to be 0.012 g, the BMD worked out at 0.11 g/cm^2 and the “XR Head Area (% Contra)” value is on record as 79 % Contra. Under setting [2], the BMC was 0.015 g, the BMD stood at 0.12 g/cm^2 and the “XR Head Area (% Contra)” value came out at 85 % Contra.
